Assay results as given in patent US7754249B2, “Haircare compositions and methods” (The Boots Company PLC, priority 2004, dated 2010).

Tested on: interleukin-2 (IL-2) production
Assay: IL-2 inhibition assay in pha-stimulated human lymphocytes
Format: cell-based
Conditions: preliminary trial; cultured human lymphocytes stimulated with pha, with or without CsA
Protocol: The potential for the extracts to reduce/prevent hair loss or promote hair growth were assessed by an IL-2 inhibition assay. IL-2 has been associated with inhibition of hair growth and promotion of hair loss.
Human lymphocytes were extracted from blood and cultured using standard techniques. A preliminary trial was carried out to ensure that test cells were able to produce IL-2 when stimulated with phytohaemogluttinin (pha), a known IL-2 promoter, and also for this stimulation to be inhibited using Cyclosporin A (CsA) which is a known inhibitor of IL-2 production.
Following this confirmation of the capability of the cells to produce IL-2, studies using the extracts were carried out using the same methodology, but with the extracts replacing CsA. Results are shown in Table 2 and expressed as % IL-2 inhibition compared to control.
Control=50% denatured ethanol, 50% propylene glycol.
All materials were used at 1 in 1000 dilution.

phytohaemogluttinin [pha]
IL-2: >1000 pg/mL
